± gives the standard deviation of the averaged measurements.
Tests used:
Experiment in all cases: area under growth-rate inhibition curve (AUC GRI) (dimensionless (GR-based AUC)); higher = less growth inhibition
Conditions in all cases: exposure time: 72 h; concentrations: 0.1, 1, 10 uM
[1] = test system: BT474-LTR
Method in brief: (§1)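 Six breast cancer cell line models were used: two triple-negative lines, plus parental HER2+ lines and HER2+ lines resistant to a two-drug combination, each plated at an optimised log-phase density and treated with compound at 0.1, 1 or 10 µM for 72 h. After fixation in 4% paraformaldehyde, nuclei were stained with Hoechst 33342 or DAPI, imaged and counted. Growth was corrected using Day 0 plates, untreated Day 3 plates and DMSO controls, with 2 biological replicates. These corrected counts gave the area under the growth-rate inhibition curve.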

[2] = test system: BT474-P
Method in brief: as §1

[3] = test system: MDA-MB-231
Method in brief: as §1

[4] = test system: MDA-MB-468
Method in brief: as §1

[5] = test system: SKBR3-LTR
Method in brief: as §1

[6] = test system: SKBR3-P
Method in brief: as §1

Compound | area under growth-rate inhibition curve [1] | area under growth-rate inhibition curve [2] | area under growth-rate inhibition curve [3] | area under growth-rate inhibition curve [4] | area under growth-rate inhibition curve [5] | area under growth-rate inhibition curve [6]
O=C(NCC1CCOCC1)c1cnc(Nc2ccc(Cl)cc2Cl)nc1C(F)(F)F | 1.04 | 0.983 | 1 | 1.01 | 1.05 | 1.02
Cc1[nH]c(=O)c(C#N)cc1-c1ccncc1 [Milrinone] | 1.05 | 1.03 | 1.04 | 1.03 | 1.07 | 1.02
Cl.Clc1cccc(Cl)c1NC1=NCCN1 [Clonidine HCl] | 1.16 | 1.08 | 1.05 | 1.07 | 1.06 | 1.04
CCOc1ccc(Cc2cc([C@@H]3O[C@H](SC)[C@@H](O)[C@H](O)[C@H]3O)ccc2Cl)cc1 [Sotagliflozin (LX4211)] | 1.06 | 1.02 | 1.01 | 0.996 | 1.1 | 1.02
O=C(O)C=CC(=O)O.O=C(c1ccc(OCCCc2c[nH]cn2)cc1)C1CC1 [Ciproxifan] | 1.06 | 0.976 | 1.02 | 0.991 | 1.07 | 1.01
CNCc1ccc(C)c(NC(=O)c2ccc(Nc3nc(-c4ccccc4)c4ccccc4n3)cc2)c1 | 1.08 | 0.853 | 0.877 | 0.856 | 0.914 | 0.876
CC(=O)Oc1cc2c(s1)CCN(C(C(=O)C1CC1)c1ccccc1F)C2 (configuration not stated) [Prasugrel] | 1.13 | 1.05 | 1.03 | 1.04 | 1.03 | 1.02
CC(C)Oc1ccc(-c2nc(-c3cccc4c3CC[C@@H]4NCCO)no2)cc1C#N [Ozanimod (RPC1063)] | 1 | 0.933 | 0.889 | 0.927 | 0.976 | 0.984
O=C(O)COCCN1CCN(C(c2ccccc2)c2ccc(Cl)cc2)CC1.[Cl-].[Cl-].[H+].[H+] (configuration not stated) [Cetirizine DiHCl] | 1.07 | 1.03 | 1.02 | 1 | 1.03 | 0.997
CNCC(O)c1ccc(O)cc1 (configuration not stated) [Synephrine] | 1.06 | 1.05 | 0.993 | 1.05 | 1.07 | 1.03
CNS(=O)(=O)CCc1ccc2[nH]cc(C3CCN(C)CC3)c2c1.[Cl-].[H+] [Naratriptan] | 1.04 | 1.04 | 1.02 | 1.04 | 1.06 | 0.994
C=CCN1CC(C(=O)N(CCCN(C)C)C(=O)NCC)CC2c3cccc4[nH]cc(c34)CC21 (configuration not stated) [Cabergoline] | 1.05 | 1.01 | 1.04 | 1.05 | 1.05 | 1.03
CCCCCCCCc1ccc(CCC(N)(CO)CO)cc1.Cl [Fingolimod (FTY720) HCl] | 0.96 | 0.836 | 0.829 | 0.864 | 0.814 | 0.901
CN1CCC(=C2c3ccccc3CCn3c(C=O)cnc32)CC1 [Alcaftadine] | 1.04 | 1 | 1.04 | 1.03 | 1.06 | 1.02
COC(=O)[C@H](c1ccccc1Cl)N1CCc2sccc2C1 [Clopidogrel] | 1.07 | 1.06 | 1 | 1.03 | 1.06 | 1.01
CC1=C(C(=O)OC2CCCCC2)C(c2ccc([N+](=O)[O-])cc2)C2=C(CC(C)(C)CC2=O)N1 (configuration not stated) [FLI-06] | 1.01 | 0.895 | 0.878 | 0.915 | 0.928 | 0.915
O=C(Nc1c(Cl)cncc1Cl)c1ccc(OC(F)F)c(OCC2CC2)c1 [Roflumilast] | 1.05 | 1.03 | 0.966 | 1.04 | 1.07 | 1.01
CCCCC1=NC2(CCCC2)C(=O)N1Cc1ccc(-c2ccccc2-c2nn[nH]n2)cc1 [Irbesartan] | 1.063 ± 0.0091 | 1.032 ± 0.0013 | 1.042 ± 0.002 | 1.04 ± 0.023 | 1.04 ± 0.036 | 1.03 ± 0.019
OC(CN1CCN(c2cccc(Cl)c2)CC1)C(c1ccccc1)c1ccccc1.[Cl-].[Cl-].[H+].[H+] (configuration not stated) | 1.07 | 1.04 | 1.04 | 0.981 | 1.05 | 0.982
CCCCC(=O)O[C@H]1CC[C@H]2[C@@H]3CCc4cc(O)ccc4[C@H]3CC[C@]12C [Estradiol valerate] | 1.05 | 1.04 | 1.01 | 1.03 | 1.05 | 1.02
CCN(CC)C(=O)c1ccc(C2=CC3(CCNCC3)Oc3cccc(O)c32)cc1.Cl [ADL5859 HCl] | 1.07 | 1.05 | 1.03 | 1.04 | 1.1 | 1.03
C[C@]12CC[C@@H]3c4ccc(O)cc4CC[C@H]3[C@@H]1C[C@@H](O)[C@@H]2O [Estriol] | 1.01 | 0.979 | 0.988 | 0.987 | 1.01 | 0.989
CCCCOc1ccc(C(=O)Nc2ccc(F)cc2F)cc1 | 1.06 | 1.02 | 1.02 | 1.01 | 1.05 | 1.01
O=C1CCCC2C3CCCN4CCCC(CN12)C34 (single isomer, unassigned; (+)) [(+)-Matrine] | 1.08 | 1.06 | 1.03 | 1.01 | 1.09 | 1.02
Nc1nc(NCCc2ccc(O)cc2)nc2nc(-c3ccco3)nn12 | 1.03 | 1.01 | 1.03 | 0.973 | 0.956 | 0.822
CCCN[C@H]1CCc2nc(N)sc2C1 [Pramipexole] | 1.1 | 1.07 | 1.03 | 1.05 | 1.08 | 1.01
CCCC1O[C@@H]2C[C@H]3[C@@H]4CCC5=CC(=O)C=C[C@]5(C)[C@H]4[C@@H](O)C[C@]3(C)[C@]2(C(=O)CO)O1 (some centres not stated) [Budesonide] | 0.98 | 0.901 | 0.971 | 1.03 | 1.03 | 0.912

Compound | area under growth-rate inhibition curve [1] | area under growth-rate inhibition curve [2] | area under growth-rate inhibition curve [3] | area under growth-rate inhibition curve [4] | area under growth-rate inhibition curve [5] | area under growth-rate inhibition curve [6]
CN1CCN2c3ccccc3Cc3ccccc3C2C1.[Cl-].[H+] (configuration not stated) [Mianserin HCl] | 1.12 | 1.07 | 1.03 | 1.06 | 1.09 | 1.02
O=C1CC2(CCCC2)CC(=O)N1CCCCN1CCN(c2ncccn2)CC1.[Cl-].[H+] [Buspirone hydrochloride] | 1.02 | 1.01 | 1 | 1.01 | 1.03 | 1.01
Cc1cccc(C#Cc2ccccc2)n1 [MPEP] | 1.1 | 1.03 | 1.05 | 1.03 | 1.05 | 0.999
COC(=O)C1=CCCN(C)C1.[Br-].[H+] [Arecoline] | 1.06 | 1.04 | 1.03 | 0.988 | 1.03 | 1.02
CNC(=O)[C@@H](c1ccccc1)N1CCc2cc(OC)c(OC)cc2[C@@H]1CCc1ccc(C(F)(F)F)cc1.Cl [Almorexant HCl] | 1.07 | 0.976 | 1.01 | 1 | 0.988 | 0.977
Cc1ccc(C2OC(CO)C(O)C(O)C2O)cc1Cc1ccc(-c2ccc(F)cc2)s1 (configuration not stated) [Canagliflozin] | 1.07 | 1.02 | 1.02 | 1 | 1.05 | 1.03
O=c1[nH]c2ccccc2n1CCCN1CCC(n2c(=O)[nH]c3cc(Cl)ccc32)CC1 [Domperidone] | 1 | 0.993 | 1.01 | 0.926 | 1.04 | 0.962
CC(C)C1NC(=O)C(CCCCN)NC(=O)C(Cc2c[nH]c3ccccc23)NC(=O)C(Cc2ccc(O)cc2)NC(=O)C(NC(=O)C(N)Cc2ccc3ccccc3c2)CSSCC(C(=O)NC(C(N)=O)C(C)O)NC1=O (configuration not stated) [lanreotide] | 1 | 1 | 0.986 | 1.02 | 1.01 | 1.01
COc1cc(OC)c(NC(=O)Nc2cc(C)on2)cc1Cl | 1.05 | 0.977 | 1.03 | 1.02 | 1.06 | 1
CN1CCC(=C2c3ccccc3CC(=O)c3sccc32)CC1.O=C(O)/C=C/C(=O)O [Ketotifen Fumarate] | 1.07 | 1.02 | 0.939 | 1 | 1.1 | 1.01
Cc1c(C(=O)NN2CCCCC2)nn(-c2ccc(Cl)cc2Cl)c1-c1ccc(Cl)cc1 [Rimonabant] | 1.07 | 0.979 | 1 | 0.987 | 1.04 | 0.953
C=CCN1CC[C@]23c4c5ccc(O)c4O[C@H]2C(=O)CC[C@@]3(O)[C@H]1C5.[Cl-].[H+] [Naloxone HCl] | 1.08 | 1.05 | 1.04 | 1.02 | 1.05 | 1.03
CC(C)NCC(O)COc1ccc(CCOCC2CC2)cc1.[Cl-].[H+] (configuration not stated) [Betaxolol hydrochloride (Betoptic)] | 1.1 | 1.02 | 1.05 | 1.04 | 1.06 | 0.98
CCc1c(C)[nH]c2c1C(=O)C(CN1CCOCC1)CC2 (configuration not stated) [molindone] | 1.04 | 1.01 | 1.05 | 1.06 | 1.05 | 1.03
COS(=O)(=O)[O-].C[N+]1(C)CCC(=C(c2ccccc2)c2ccccc2)CC1 [Diphemanil Methylsulfate] | 1.03 | 1.05 | 1.03 | 1.01 | 1.03 | 0.971
c1nc2nc(Nc3ccc(N4CCOCC4)cc3)nc(NC3CCCCC3)c2[nH]1 [Reversine] | 0.65 | 0.648 | 0.689 | 0.643 | 0.677 | 0.662
CCOc1cc([C@@H](CS(C)(=O)=O)N2C(=O)c3cccc(NC(C)=O)c3C2=O)ccc1OC [Apremilast] | 1.04 | 1.01 | 1 | 1.03 | 1.05 | 1.02
CN1CCN(C2=Nc3ccccc3Oc3ccc(Cl)cc32)CC1 [Loxapine] | 1.03 | 0.995 | 1.04 | 1.03 | 1.06 | 1.02
Cc1cc(C(C)(C)C)c(O)c(C)c1CC1=NCCN1.[Cl-].[H+] [Oxymetazoline hydrochloride] | 1.09 | 1.05 | 1.01 | 1.04 | 1.06 | 1.02
Cc1cc2c(s1)Nc1ccccc1N=C2N1CCN(C)CC1 [Olanzapine] | 1.08 | 1.02 | 1.01 | 1.03 | 1.06 | 0.97
CN(C)C(=O)Oc1cc(OC(=O)N(C)C)cc(C(O)CNC(C)(C)C)c1.[Cl-].[H+] (configuration not stated) [Bambuterol HCl] | 1.09 | 1.06 | 1.04 | 1.03 | 1.03 | 1.01
Oc1ccc([C@H]2COc3cc(O)ccc3C2)cc1 [Equol] | 1.08 | 1.07 | 1.02 | 1.01 | 1.05 | 1.05
CN1[C@@H]2CC[C@H]1CC(OC(=O)C1C=Nc3ccccc31)C2.[Cl-].[H+] (some centres not stated) [Tropisetron] | 1.09 | 1.02 | 1.03 | 1.02 | 1.06 | 0.976
COc1cc2nc(N(C)CCCNC(=O)C3CCCO3)nc(N)c2cc1OC.[Cl-].[H+] (configuration not stated) [Alfuzosin HCl] | 1.09 | 1.03 |  |  |  | 1.01
CNCCCN1c2ccccc2CCc2ccccc21.Cl [Desipramine hydrochloride] | 0.997 | 0.985 | 1.03 |  | 1.06 | 
CCCCC(=O)N(Cc1ccc(-c2ccccc2-c2nnn[nH]2)cc1)[C@H](C(=O)O)C(C)C [Valsartan] | 1.02 | 0.974 | 1.04 | 1.04 |  | 1.02

— the supplement of paper PMC9763283
